IC50 data for 16 compounds are collected here from patent US20240409573A1, “CALICHEAMICIN DERIVATIVES AND ANTIBODY DRUG CONJUGATES THEREOF” (priority 2017, published 2024).

SMILES strings stand for the structures.

Assay type in all cases: cell-based
The subject of assay [1] is N87 (gastric cancer) cells, Her2-target expressing. In words: In vitro cell assay, cell viability by MTS, N87. The conditions noted are these: 96 h, read-out: Average IC50, N87. The method, then:
(§1) Her2-Target expressing (BT474 (breast cancer), N87 (gastric cancer), MDA-MB-361-DYT2 (breast cancer)) or Her2-non-expressing (MDA-MB-468, HT29) cells, or 0033-target expressing HL60, HEL92.1.7, NB4, TF-1 or 0033-non-expressing (Raji) cells were seeded in 96-well cell culture plates for 24 hours before treatment. Cells were treated with 3-fold serially diluted antibody-drug conjugates or free compounds (i.e., no antibody conjugated to the drug) in duplicate at 10 concentrations. Cell viability was determined by CellTiter 96® AQueous One Solution Cell Proliferation MTS Assay (Promega, Madison WI) 96 hours after treatment. Relative cell viability was determined as percentage of untreated control. IC50 values were calculated using a four parameter logistic model #203 with XLfit v4.2 (IDBS, Guildford, Surry, UK). Results are shown below in Table 3 (for payloads), Table 4 (for Herceptin conjugates), and Table 5 (for CD33 conjugates).

Assay [2] concerns MDA-MB-361-DYT2 (breast cancer) cells, Her2-target expressing. In words: In vitro cell assay, cell viability by MTS, MDA-MB-361-DYT2. The note with it: 96 h, read-out: Average IC50, MDA-MB-361-DYT2. The method, then: as §1
Assay [3] deals with HT29 cells, Her2-non-expressing. In words: In vitro cell assay, cell viability by MTS, HT29. The note with it: Homo sapiens, HT-29, 96 h, read-out: Average IC50, HT29. The protocol:
as §1

Assay [4] has as its system HL60 cells, CD33-target expressing. In words: In vitro cell assay, cell viability by MTS, HL60. The conditions noted are these: Homo sapiens, HL-60, 96 h, read-out: Average IC50, HL-60. The method, then:
as §1

Assay [5] has as its system TF-1 cells, CD33-target expressing. In words: In vitro cell assay, cell viability by MTS, TF-1. The note with it: Homo sapiens, TF-1, 96 h, read-out: Average IC50, TF-1. The method, then: as §1
For assay [6], the system named is Raji cells, CD33-non-expressing. In words: In vitro cell assay, cell viability by MTS, Raji. The note with it: Homo sapiens, 96 h, read-out: Average IC50, Raji. The method, then: as §1

In the case of `CCN[C@H]1CO[C@@H](O[C@H]2[C@H](O[C@H]3C#C/C=C\C#C[C@]4(O)CC(=O)C(NC(=O)OC)=C3/C4=C\CSSC(C)C(=O)O)O[C@H](C)[C@@H](NO[C@H]3C[C@H](O)[C@H](SC(=O)c4c(C)c(I)c(O[C@@H]5O[C@@H](C)[C@H](O)[C@@H](OC)[C@H]5O)c(OC)c4OC)[C@@H](C)O3)[C@@H]2O)C[C@@H]1OC` (mixture of isomers) [Example P9], the values for the IC50 in assay [1], in assay [2] and in assay [3] were 0.392 nM, 1.89 nM and 0.334 nM, respectively.
As to `CCNC1COC(OC2C(OC3C#C/C=C\C#C[C@]4(O)CC(=O)C(NC(=O)OC)=C3/C4=C\CSSC3CC3)OC(C)C(NOC3CC(O)C(SC(=O)c4c(C)c(I)c(OC5OC(C)C(O)C(OC)C5O)c(OC)c4OC)C(C)O3)C2O)CC1OC` (stereo in doubt) [Example P18], the half-inhibitory concentration (IC50) in assay [1] was 0.033 nM; in assay [2] it was 0.017 nM; in assay [3] it was 0.005 nM; in assay [4] it was 0.005 nM; in assay [5], 0.093 nM; in assay [6], 0.003 nM.
Regarding `CCNC1COC(OC2C(OC3C#C/C=C\C#C[C@]4(O)CC(=O)C(NC(=O)OC)=C3/C4=C\CSSC3CCCC3)OC(C)C(NOC3CC(O)C(SC(=O)c4c(C)c(I)c(OC5OC(C)C(O)C(OC)C5O)c(OC)c4OC)C(C)O3)C2O)CC1OC` (stereo in doubt) [Example P20], the half-maximal inhibitory concentration (IC50) in assay [1] turned out to be 0.004 nM; in assay [2], 0.005 nM; in assay [3], 0.002 nM.
In the same order, the values of `CCNC1COC(OC2C(OC3C#C/C=C\C#C[C@]4(O)CC(=O)C(NC(=O)OC)=C3/C4=C\CSSC3CCCCC3)OC(C)C(NOC3CC(O)C(SC(=O)c4c(C)c(I)c(OC5OC(C)C(O)C(OC)C5O)c(OC)c4OC)C(C)O3)C2O)CC1OC` (stereo in doubt) [Example P21] are 0.013 nM, 0.064 nM and 0.012 nM.
Consider `CCN[C@H]1CO[C@@H](O[C@@H]2C(O)[C@H](NO[C@H]3C[C@H](O)[C@H](SC(=O)c4c(C)c(I)c(O[C@@H]5O[C@@H](C)[C@H](O)[C@@H](OC)[C@H]5O)c(OC)c4OC)[C@@H](C)O3)[C@@H](C)O[C@H]2O[C@H]2C#C/C=C\C#C[C@]3(O)CC(=O)C(NC(=O)OC)=C2/C3=C\CSSc2ccncc2)C[C@@H]1OC` (stereo in doubt) [Example P44], for which the IC50 in assay [1] was 0.418 nM; in assay [2], more than 10 nM; in assay [3], 1.26 nM; in assay [4], 0.127 nM; in assay [5], 1.48 nM; in assay [6] it was 0.171 nM.
Take `CCN[C@H]1CO[C@@H](O[C@H]2[C@H](O[C@H]3C#C/C=C\C#C[C@]4(O)CC(=O)C(NC(=O)OC)=C3/C4=C\CSSC(C)(C)CCN)O[C@H](C)[C@@H](NO[C@H]3C[C@H](O)[C@H](SC(=O)c4c(C)c(I)c(O[C@@H]5O[C@@H](C)[C@H](O)[C@@H](OC)[C@H]5O)c(OC)c4OC)[C@@H](C)O3)[C@@H]2O)C[C@@H]1OC` [Example P8]: the IC50 in assay [1] was found to be 0.804 nM; in assay [2] it was 0.063 nM; in assay [3] it was 0.07 nM; in assay [4], 0.081 nM; in assay [5], 0.36 nM; in assay [6] it was 0.028 nM.
Regarding `CCN[C@H]1CO[C@@H](O[C@H]2[C@H](O[C@H]3C#C/C=C\C#C[C@]4(O)CC(=O)C(NC(=O)OC)=C3/C4=C\CSSC[C@H](NC(=O)CC[C@H](N)C(=O)O)C(=O)NCC(=O)O)O[C@H](C)[C@@H](NO[C@H]3C[C@H](O)[C@H](SC(=O)c4c(C)c(I)c(O[C@@H]5O[C@@H](C)[C@H](O)[C@@H](OC)[C@H]5O)c(OC)c4OC)[C@@H](C)O3)[C@@H]2O)C[C@@H]1OC` [Example P14], the figures for the IC50 in assay [1], in assay [2] and in assay [3] were 2.73 nM, 15.6 nM and 2.22 nM, respectively.
In the same order, the values of `CCN[C@H]1CO[C@@H](O[C@H]2[C@H](O[C@H]3C#C/C=C\C#C[C@]4(O)CC(=O)C(NC(=O)OC)=C3/C4=C\CSSC3CCN(C)CC3)O[C@H](C)[C@@H](NO[C@H]3C[C@H](O)[C@H](SC(=O)c4c(C)c(I)c(O[C@@H]5O[C@@H](C)[C@H](O)[C@@H](OC)[C@H]5O)c(OC)c4OC)[C@@H](C)O3)[C@@H]2O)C[C@@H]1OC` [Example P15] are 0.077 nM, 0.077 nM and 0.12 nM.
Regarding `CCN[C@H]1CO[C@@H](O[C@H]2[C@H](O[C@H]3C#C/C=C\C#C[C@]4(O)CC(=O)C(NC(=O)OC)=C3/C4=C\CSSC3CCN(C(=O)OC(C)(C)C)CC3)O[C@H](C)[C@@H](NO[C@H]3C[C@H](O)[C@H](SC(=O)c4c(C)c(I)c(O[C@@H]5O[C@@H](C)[C@H](O)[C@@H](OC)[C@H]5O)c(OC)c4OC)[C@@H](C)O3)[C@@H]2O)C[C@@H]1OC` [Example P17], the IC50 is 2.38 nM in assay [1], 0.152 nM in assay [2] and 0.501 nM in assay [3].
In the same order, the values of `CCN[C@H]1CO[C@@H](O[C@H]2[C@H](O[C@H]3C#CC=CC#C[C@]4(O)CC(=O)C(NC(=O)OC)=C3/C4=C\CSSC3CCC3)O[C@H](C)[C@@H](NO[C@H]3C[C@H](O)[C@H](SC(=O)c4c(C)c(I)c(O[C@@H]5O[C@@H](C)[C@H](O)[C@@H](OC)[C@H]5O)c(OC)c4OC)[C@@H](C)O3)[C@@H]2O)C[C@@H]1OC` [Example P19] are 0.005 nM, 0.005 nM and 0.004 nM.
On the same counts, the results for `CCN[C@H]1CO[C@@H](O[C@H]2[C@H](O[C@H]3C#C/C=C\C#C[C@]4(O)CC(=O)C(NC(=O)OC)=C3/C4=C\CSSC34CC5CC(CC(C5)C3)C4)O[C@H](C)[C@@H](NO[C@H]3C[C@H](O)[C@H](SC(=O)c4c(C)c(I)c(O[C@@H]5O[C@@H](C)[C@H](O)[C@@H](OC)[C@H]5O)c(OC)c4OC)[C@@H](C)O3)[C@@H]2O)C[C@@H]1OC` [Example P22] are 0.015 nM, 0.044 nM and 0.009 nM.
On to `CCN[C@H]1CO[C@@H](O[C@H]2[C@H](O[C@H]3C#C/C=C\C#C[C@]4(O)CC(=O)C(NC(=O)OC)=C3/C4=C\CSSC(C)(C)C#N)O[C@H](C)[C@@H](NO[C@H]3C[C@H](O)[C@H](SC(=O)c4c(C)c(I)c(O[C@@H]5O[C@@H](C)[C@H](O)[C@@H](OC)[C@H]5O)c(OC)c4OC)[C@@H](C)O3)[C@@H]2O)C[C@@H]1OC` [Example P23], for which the IC50 is 0.005 nM in assay [1], 0.007 nM in assay [2] and 0.012 nM in assay [3].
Regarding `CCN[C@H]1CO[C@@H](O[C@H]2[C@H](O[C@H]3C#C/C=C\C#C[C@]4(O)CC(=O)C(NC(=O)OC)=C3/C4=C\CSSC(C)(C)c3cccnc3N)O[C@H](C)[C@@H](NO[C@H]3C[C@H](O)[C@H](SC(=O)c4c(C)c(I)c(O[C@@H]5O[C@@H](C)[C@H](O)[C@@H](OC)[C@H]5O)c(OC)c4OC)[C@@H](C)O3)[C@@H]2O)C[C@@H]1OC` [Example P26], the concentration for half-maximal inhibition (IC50) in assay [1] stood at 0.035 nM; in assay [2], 0.017 nM; in assay [3], 0.004 nM; in assay [4], 0.002 nM; in assay [5], 0.036 nM; in assay [6] it was 0.004 nM.
In the case of `CCN[C@H]1CO[C@@H](O[C@H]2[C@H](O[C@H]3C#C/C=C\C#C[C@]4(O)CC(=O)C(NC(=O)OC)=C3/C4=C\CSSC(C)(C)c3ccc(N)cc3)O[C@H](C)[C@@H](NO[C@H]3C[C@H](O)[C@H](SC(=O)c4c(C)c(I)c(O[C@@H]5O[C@@H](C)[C@H](O)[C@@H](OC)[C@H]5O)c(OC)c4OC)[C@@H](C)O3)[C@@H]2O)C[C@@H]1OC` [Example P27], the IC50 in assay [1] was found to be 0.04 nM; in assay [2], 0.003 nM; in assay [3], 0.006 nM; in assay [4], 0.004 nM; in assay [5], 0.02 nM; in assay [6], 0.002 nM.
As for `CCN[C@H]1CO[C@@H](O[C@H]2[C@H](O[C@H]3C#C/C=C\C#C[C@]4(O)CC(=O)C(NC(=O)OC)=C3/C4=C\CSSC(C)(C)c3ccc(C(=O)O)cc3)O[C@H](C)[C@@H](NO[C@H]3C[C@H](O)[C@H](SC(=O)c4c(C)c(I)c(O[C@@H]5O[C@@H](C)[C@H](O)[C@@H](OC)[C@H]5O)c(OC)c4OC)[C@@H](C)O3)[C@@H]2O)C[C@@H]1OC` [Example P29], the IC50 came to 0.17 nM in assay [1]; 0.025 nM in assay [2]; 0.036 nM in assay [3]; 0.025 nM in assay [4]; 0.466 nM in assay [5]; 0.015 nM in assay [6].
For the compound `CCN[C@H]1CO[C@@H](O[C@H]2[C@H](O[C@H]3C#C/C=C\C#C[C@]4(O)CC(=O)C(NC(=O)OC)=C3/C4=C\CSSC(C)(C)CC(N)=O)O[C@H](C)[C@@H](NO[C@H]3C[C@H](O)[C@H](SC(=O)c4c(C)c(I)c(O[C@@H]5O[C@@H](C)[C@H](O)[C@@H](OC)[C@H]5O)c(OC)c4OC)[C@@H](C)O3)[C@@H]2O)C[C@@H]1OC` [Example P30], the IC50 in assay [1] was determined as 0.308 nM; in assay [2], 0.049 nM; in assay [3] it was 0.057 nM; in assay [4], 0.049 nM; in assay [5], 0.112 nM; in assay [6], 0.03 nM.

For orientation: IC50 means the concentration that inhibits the measured activity by half.
